Square brackets hold non-standard residues; d marks the D form. Peptide text beside a SMILES is read from it. dHyp = O=C(O)[C@H]1C[C@H](O)CN1

The test system of data set [1] is osteoblastic rat osteosarcoma cell lines. The note with it: dye transfer after Lucifer Yellow injection; cited from earlier work.
For data set [2], the system named is rats subjected to myocardial infarction. Briefly: myocardial infarction by LAD ligation in rats, three weeks of treatment. Format: in vivo, rat. The method, then: Male Lewis rats (300–350 g; M&B, L1. Skendsved, Denmark) were anaesthetized with a neurolept anaesthesic combination (Hypnorm® (fentanyl citrate 0.315 mg/ml and fluanisone 10 mg/ml)+midazolam (5 mg/ml)). Commercial solution of midazolam was diluted 1:2 in distilled water. Three parts of the diluted midazolam is mixed with one part hypnorm®. Anesthesia was induced by s.c. administration of 0.2 ml of this solution per 100 gram rat. When surgical anesthesia was established, an endotracheal cannula is inserted and the animal is artificially ventilated using a Harvard rodent ventilator adjusted to maintain arterial pH at 7.3–7.5 during surgery.
Doses used are shown below in Table I:
Three weeks after ligation of LAD, the rats were anesthetized with an i.p, injection of pentobarbital (50 mg/kg). The animals were placed on a heating blanket in order to maintain body temperature at 37° C. Tracheotomy was performed and the rat was ventilated with oxygen using a Harvard rodent ventilator. The ventilator was adjusted to maintain arterial pH at 7.35–7.45. PE50 catheters were placed in the femoral vein and artery for i.v. administration and arterial pressure measurements, respectively. After insertion of the femoral i.v. catheter, the animal was paralysed by i.v. administration of pancuronium, 1 mg/kg. Anaesthesia and respiratory paralysis is maintained by continuous i.v. infusion of pentobarbital (2.5 mg/kg/h) and pancuronium (1 mg/kg/h) delivered in isotonic saline (50 μl/min). A tygon catheter was inserted into the left ventricle via the right carotid artery for determination of left ventricular end-diastolic pressure. After recording of left ventricular end-diastolic pressure (LVEDP), The hearts are removed from the bodies by cutting the veins and arteries a few mm from the hearts. […]
Using a microscope with a stage that can be moved in predetermined steps, both Masson-trichrome stained slides were examined and the number of points hitting fibrous tissue (blue stained in Masson-trichrome) and normal tissue are counted. […] Infarct size was calculated as % fibrous tissue in the heart.

Data set [3] concerns connexin hemi-channels. Kind of data set: calcein dye uptake in cardiomyocytes under ischemia mimicking solution (Example 4). Conditions: 10 nM co-incubation during metabolic stress (stress alone 38% higher), n=6. It is filed as cell-based, rat. The protocol:
1. Cell culture: Briefly, the hearts from 20 neonate rats (age 1–2 days) were excised aseptically. The ventricles were isolated and cut into 4–6 pieces, which are digested in several steps in a Hanks buffered saline with trypsin and DNAse. The cells were then centrifuged and resuspended in MEM with 5% FCS. To eliminate non-muscle cells the suspension was preplated in petri dishes for 30 minutes at 37° C. The cells in suspesion were then seeded onto collagen coated coverslips.
2. Dye-uptake: The cover slips with cardiomyocytes were incubated for 30 minutes with control solution (PBS) containing in mM: Na^+ 152, K^+ 4.2, Cl^− 141.5, PO4^3− 9.5, Ca^2+ 0.9, Mg^2+ 0.5, glucose 6, pH 7.4. or an ischmia mimicking (injury) solution (as control only K^+ 8.2, no glucose, 10 mM deoxy-glucose, pH 6.5), both solutions containing 200 μM calcein. Then the cells were washed for 10 minutes with control solution.
The cover slips were mounted in an open chamber on the stage of an inverted microscope. Ten random fields were chosen and from each field three cells were chosen under conventional light microscopy. Then the cells were excited by 480 nm light and the fluorescence emmision measured at 510 nm, where the emission intensity is a measure of dye-uptake.
The effect of the compound 1 on dye-uptake was investigated under two conditions: […]

For data set [4] the following is noted: rat, in vivo, sc.
Protocol: (§1) Compound 1 was delivered by an osmotic minipump (Alzet model 2ML4) that was inserted into the intraperitoneal (i.p.) cavity immediately prior to induction of the myocardial infarction. The pump was filled with vehicle (isotonic saline) or Compound 1 and primed at 37° C. for 24 hours prior to the operation. In order to ensure that the therapeutic plasma concentration was obtained already at the time of infarction, a loading dose of Compound 1 was given s.c. prior to ligation of the LAD.
(§2) After administration of the s.c. loading dose of Compound 1 and after i.p. insertion of the osmotic minipump, a left thoracotomy was performed, and the left anterior decending artery was ligated using a 6-0 silk suture. The thorax is closed in layers, and a negative pressure was induced in the pleural cavity to unfold the lungs. Sham-operated animals were subjected to the same procedure without ligation of the LAD. Postoperatively, the animal were allowed to recover in a heated cabinet at 30° C. with 50% oxygen until the next morning. To prevent dehydration during the recovery period, the rat was given 5 ml 5% glucose s.c. immediately after completion of surgery and another 5 ml 5% glucose at 4 p.m. To relieve postoperative pain, the rat was treated with buprenorphine (20 μg/100 g s.c. b.i.d.) and meloxicam (0.1 mg/100 g s.c. once daily) for three days after the myocardial infarction. […] Plasma concentrations of Compound 1 were measured by mass spectrometry following solid phase extraction.
Data set [5] can be described thus: in vivo. Conditions: rat, ip.
Protocol: as §1, §2
The test system of data set [6] is human osteoblast cultures. The note with it: dye transfer after Lucifer Yellow injection; cited from earlier work.
The test system of data set [7] is Ventricular myocytes. Briefly: volume measurements in cardiomyocytes during metabolic inhibition. The note with it: 0.1 nM in stress medium, six experiments (stress alone 1.06±0.02, control 0.94±0.04). It is filed as cell-based, rat. The method, then: 1. Methods: Ventricular myocytes were isolated from neonate rats by trypsin digestion and plated onto collagen-coated cover slips. After four days the myocytes formed confluent and synchronously beating sheets of cells. To measure cell volume cells were loaded with calcein-AM (5 μM in control buffer) for 15 minutes at 37° C. and the cover slips mounted in an open bath chamber. The following experiments were performed at room temperature. Using a Leica laser confocal microscope, an optical cross-section was performed every 20 seconds throughout the duration of the experiments.
The optical cross-sections were analyzed using Metamorph (Universal Imaging). The area of the cell was determined as the area of pixels with fluorescence intensities higher than a threshold value chosen to minimize background induced fluctuations. Data are presented as relative volumes by dividing each value by the average area under control conditions (the last measurement before metabolic stress).
Solutions: Control buffer (in mM): NaCl 136, KCl 4, MgCl2 0.8, CaCl2 1.8 HEPES 5, MES 5, Glucose 6, pH 7.3 Stress buffer (in mM): NaCl 136, KCl 8, MgCl2 0.8, CaCl2 1.8 HEPES 5, MES 5, Deoxy-glucose 10, pH 6.2

In the case of `CC(=O)N[C@H](Cc1ccc(O)cc1)C(=O)N1CCC[C@@H]1C(=O)N1C[C@@H](O)C[C@@H]1C(=O)NCC(=O)N[C@H](C)C(=O)NCC(N)=O` [Compound 1, Ac-D-Tyr-D-Pro-D-4Hyp-Gly-D-Ala-Gly-NH2] (Ac-[dY][dP][dHyp]G[dA]G-NH2), the “reversal of hypoxia-induced decrease of calcium wave propagation” value in data set [1] and in data set [6] was “completely reversed” each time. For the same compound, the “left ventricular end-diastolic pressure” value in data set [2] (either dose, three weeks) is listed as “reduced left ventricular end-diastolic pressure”. For the same compound, the “heart weight-body weight ratio” value in data set [2] (rats, three weeks after MI) is on record as “reduced by the two highest doses”. Besides, the “reduction of infarct size relative to vehicle treated MI rats” value in data set [2] (treatment for three weeks) is listed as 20–50%. Moreover, the “calcein dye uptake above control cells” value in data set [3] is 5%. Further, in data set [4], the “time to steady-state plasma level” value was 3 min. Besides, the level at time molar at 504 h in data set [5] (11 pmol/kg/min) stood at 1.7 ± 0.4 nM; in data set [5] (110 pmol/kg/min), 5.7 ± 0.4 nM; in data set [5] (1100 pmol/kg/min), 93.7 ± 12.3 nM. Moreover, in data set [7], the “average relative volume during stress” value amounted to 0.93±0.05.

The values above are taken from patent publication US7153822B2, “Compositions and methods for modulating connexin hemichannels” (Wyeth, priority 2002, dated 2006).
